Data on 13 compounds can be found in patent US20240067932A1, “METHODS AND COMPOSITIONS FOR GENERATING HEMOGENIC ENDOTHELIAL CELLS FROM PLURIPOTENT STEM CELLS” (Trailhead Biosystems Inc., priority 2022, published 2024).

What all share (format): cell-based, human
Test [1] relates to early mesoderm progenitors. The test is described as follows: 8-factor HD-DoE experiments optimized for maximum GATA2 expression (qPCR, partial least squares models). (In general: Quantitative PCR measures a nucleic acid by following its amplification.)
In test [2] the test system is early mesoderm progenitors. Described as above. Conditions: for factor contribution (maximum expression of GATA2): first model, FIG. 2, factors Forskolin, VEGF, FGF2, Albumax, SUN1162, Hydrocortisone, SB341542, Resveratrol, 3 days after stage 1. The source says: The early mesoderm progenitors were used for further differentiation along the endothelial lineage using a High-Dimensional Design of Experiments (HD-DoE) approach to simultaneously test multiple process inputs (e.g., small molecule agonists or antagonists) on output responses, such as gene expression. Based on predicted conditions that maximize expression of hemogenic endothelial enriched genes such as CD31, CD34, CD143, CD309, GATA2, Fill and RUNX1, vWF, a complex recipe was developed for generating differentiated hemogenic endothelial cells from the early mesoderm progenitors, composed of 8 agents as shown below in Table 1:
First, undifferentiated iPSC were grown for 48 h in CDM2 media containing 6 uM CHIR99021 (referred to herein as stage 1). Then stage 2 media was engineered. The basis of this was an 8-factor HD-DoE experiment with focus on differentiation of cells toward the hemogenic endothelial lineage for an additional 3 days after termination of stage 1 treatment. To test the effectors, 48 different combinations of effectors generated using Design-of-Experiments compression through D-optimality were robotically prepared. The effector combinations were prepared in a basal media and were subsequently added to the cells, which were then allowed to differentiate. Three days later, RNA extraction was performed, and gene expression was obtained using quantitative PCR analysis. The data were normalized and modeled using partial least squares regression analysis to the effector design, resulting in the generation of gene-specific models, which after model tuning for maximal Q2 predictive power, provided explanation of the effectors ability to control the expression of individual genes, combinatorically, and individually. Solutions within the tested space could then be explored to address desirability. For stage 2, conditions were created inducing the expression of GATA2, a transcription factor identified as a master regulator of hematopoiesis. GATA2 promotes the generation of HECs and facilitates endothelial-to-hematopoietic transition (EHT). GATA2 also suppresses cardiac differentiation at the mesoderm stage, directing cells to a hematopoietic fate. Optimizing for maximal expression of GATA2 led to a robust solution. […] In this model, high levels of KDR, important receptor for VEGF signaling, were observed. […] This model was derived from initial testing of eight factors including: Forskolin, VEGF, FGF2, Albumax, SUN1162, Hydrocortisone, SB341542, and Resveratrol. […] Factors with low contribution were excluded.

The subject of test [3] is early mesoderm progenitors. The test is described as follows: Factor criticality / dynamic profile analysis of gene expression on removal of a finalized effector. Further details: expression level of GATA2 / expression level of TAL1 / expression level of CD44 / expression level of KDR / expression level of CD34 / expression level of CD31: unit not given here.
Setting [4] is: second model, FIG. 3, factors CHIR, VEGF, FGF2, TTNBP, AGN194310, Y27632, Thymosin-β4, heparin.
Setting [5] is: model FIG. 7 (VEGF, Forskolin, FGF2), factor present.
Where [6] appears, read: model FIG. 7, named factor removed, others kept.
Where [7] appears, read: fourth model, FIG. 5, factors VEGF, FGF2, Sphingosine 1 phosphate, V11298, Pyrintegrin, Erythropoietin, L-ascorbic acid, XAV939.
Where [8] appears, read: model FIG. 9, named factor removed.
Where [9] appears, read: model FIG. 11, named factor removed.
Setting [10] is: model FIG. 9A, before addition of SANT1.
The mark [11] stands for this setting: model FIG. 9A, with addition of SANT1.
The mark [12] stands for this setting: model FIG. 10 (XAV939, VEGF, FGF2, L-ascorbic acid kept), factor present.
Where [13] appears, read: model FIG. 10, named factor removed.
Setting [14] is: model FIG. 8, named factor removed, others kept.

As to `CCc1ccc(C2=CC(C)(C)Sc3ccc(C#Cc4ccc(C(=O)O)cc4)cc32)cc1` [AGN194310], in test [1] (setting [4]), the “factor contribution (maximum expression of GATA2)” value is “relatively low factor contribution”.
As to `Cc1c[nH]c(-c2cnc(NCCNc3ccc(C#N)cn3)nc2-c2ccc(Cl)cc2Cl)n1` [CHIR], the “factor contribution (maximum expression of GATA2)” value in test [1] (setting [4]) is “relatively low factor contribution”.
Regarding `C=C[C@@]1(C)CC(=O)[C@]2(O)[C@@]3(C)[C@@H](O)CCC(C)(C)[C@@H]3[C@H](O)[C@H](OC(C)=O)[C@@]2(C)O1` [Forskolin, reference compound], in test [2], the “factor contribution (maximum expression of GATA2)” value was 27. Also, in test [3] (setting [5]), the “expression level of GATA2” value is listed as 583. In test [3] (model FIG. 7, factor present), the “expression level of CD34” value was found to be 2350, the “expression level of CD44” value was 578, the “expression level of FLI1 (Fill [sic])” value worked out at 3971 and the “expression level of KDR” value is recorded as 33751. Further, the “expression level of TAL1” value in test [3] (model FIG. 7, factor present) amounted to 370. In test [3] (setting [6]), the “expression level of CD34” value is listed as 2240, the “expression level of CD44” value was 540, the “expression level of FLI1 (Fill [sic])” value came out at 3740 and the “expression level of GATA2” value was 373. Also, in test [3] (setting [6]), the “expression level of KDR” value is 32839 and the “expression level of TAL1” value was 318.
For the compound `O=C1O[C@H]([C@@H](O)CO)C(O)=C1O` [L-ascorbic acid, reference compound], the “effect on expression of hemogenic endothelial genes analyzed (in words)” value in test [3] (model FIG. 10) is on record as “increased expression of crucial genes”. Moreover, in test [1] (setting [7]), the “factor contribution (maximum expression of GATA2)” value was found to be 5.
Consider `c1ccc2c(Oc3nc(Nc4ccc(N5CCOCC5)cc4)c4ncn(C5CCCCC5)c4n3)cccc2c1` [Purmorphamine, reference compound], for which the “expression level of GATA2” value in test [3] (model FIG. 9 (Purmorphamine, VEGF, B-27 kept), factor present) is recorded as 275. Also, in test [3] (model FIG. 9, factor present), the “expression level of CD34” value is 3230, the “expression level of FLI1 (Fill [sic])” value is given as 3571, the “expression level of KDR” value is 13612 and the “expression level of TAL1” value is recorded as 1008. In addition, in test [3] (setting [8]), the “expression level of CD34” value is recorded as 2369, the “expression level of FLI1 (Fill [sic])” value amounted to 2324, the “expression level of GATA2” value came to 105 and the “expression level of KDR” value came out at 7614. For the same compound, the “expression level of TAL1” value in test [3] (setting [8]) was determined as 428. Besides, the “factor contribution (maximum expression of GATA2)” value in test [1] (third model, FIG. 4, factors YHHU, DBZ, Purmorphamine, SANT1, LPA, Yodal, VEGF, B-27) was determined as 20.
`CC1=C(/C=C/C(C)=C/C=C/C(C)=C/C(=O)O)C(C)(C)CCC1` [Retinoic Acid, Retinoic acid, reference compound]: the “expression level of GATA2” value in test [3] (model FIG. 11 (Retinoic Acid, BMP4, VEGF), factor present) turned out to be 519. In test [3] (model FIG. 11, factor present), the “expression level of CD31” value was 768, the “expression level of CD34” value worked out at 3971, the “expression level of FLI1 (Fill [sic])” value came out at 3250 and the “expression level of TAL1” value came out at 490. Besides, in test [3] (setting [9]), the “expression level of CD31” value is listed as 486, the “expression level of CD34” value amounted to 2902, the “expression level of FLI1 (Fill [sic])” value is listed as 2936 and the “expression level of GATA2” value is reported as 281. Further, the “expression level of TAL1” value in test [3] (setting [9]) amounted to 235. Besides, in test [1] (fifth model, FIG. 6, factors VPA, SCF, BMP4, EFG, FLT3L, Arginine, Retinoic Acid, VEGF), the “factor contribution (maximum expression of GATA2)” value stood at 22.
On to `Cc1nn(-c2ccccc2)c(C)c1/C=N/N1CCN(Cc2ccccc2)CC1` [SANT1, reference compound], for which the “effect on expression of genes of interest (in words)” value in test [3] (model FIG. 9) is reported as “decreased levels of all genes of interest”. Besides, in test [3] (setting [10]), the “expression level of CD34” value is given as 3159, the “expression level of KDR” value worked out at 13469 and the “expression level of TAL1” value was 1010. For the same compound, in test [3] (setting [11]), the “expression level of CD34” value turned out to be 1995, the “expression level of KDR” value came out at 12504 and the “expression level of TAL1” value is given as 498.
For `C/C(=C\c1ccc(C(=O)O)cc1)c1ccc2c(c1)C(C)(C)CCC2(C)C` [TTNBP], the “factor contribution (maximum expression of GATA2)” value in test [1] (setting [4]) is recorded as “relatively low factor contribution”.
As for `Oc1nc(-c2ccc(C(F)(F)F)cc2)nc2c1CSCC2` [XAV939, reference compound], the “expression level of GATA2” value in test [3] (setting [12]) is listed as 992. Further, in test [3] (model FIG. 10, factor present), the “expression level of CD31” value is 6619, the “expression level of CD34” value was determined as 7050, the “expression level of CD44” value is 838 and the “expression level of FLI1 (Fill [sic])” value turned out to be 13094. In test [3] (model FIG. 10, factor present), the “expression level of KDR” value came to 36067 and the “expression level of TAL1” value came to 1265. In test [3] (setting [13]), the “expression level of CD31” value is listed as 2181, the “expression level of CD34” value was 5740, the “expression level of CD44” value stood at 799 and the “expression level of FLI1 (Fill [sic])” value amounted to 7237. Moreover, in test [3] (setting [13]), the “expression level of GATA2” value amounted to 560, the “expression level of KDR” value amounted to 31179 and the “expression level of TAL1” value was 982. The “factor contribution (maximum expression of GATA2)” value in test [1] (setting [7]) is 16.
For the compound `C[C@@H](N)[C@H]1CC[C@H](C(=O)Nc2ccncc2)CC1` [Y27632], the “factor contribution (maximum expression of GATA2)” value in test [1] (setting [4]) is reported as “relatively low factor contribution”.
Regarding “FGF2: FGFR agonist (e.g., recombinant human FGF2)”, the “factor contribution in 2 of 3 models” value in test [2] (across models) is on record as greater than 16. Moreover, the “factor contribution (maximum expression of GATA2)” value was 17 in test [2], 22 in test [1] (setting [7]) and “low factor contribution” in test [1] (setting [4]). The “expression level of GATA2” value in test [3] (setting [5]) turned out to be 583; in test [3] (setting [6]), 458; in test [3] (setting [12]), 992; in test [3] (setting [13]) it was 397. Besides, the “expression level of CD31” value in test [3] (model FIG. 7, factor present) amounted to 879; in test [3] (setting [6]), 505; in test [3] (model FIG. 8, factor present), 807; in test [3] (setting [14]), 677; in test [3] (model FIG. 10, factor present), 6619; in test [3] (setting [13]), 2002. Further, the “expression level of CD44” value in test [3] (model FIG. 7, factor present) is on record as 576; in test [3] (setting [6]), 274; in test [3] (model FIG. 8, factor present), 748; in test [3] (setting [14]) it was 626; in test [3] (model FIG. 10, factor present), 838; in test [3] (setting [13]) it was 466. The “expression level of FLI1 (Fill [sic])” value in test [3] (model FIG. 7, factor present) worked out at 3970; in test [3] (setting [6]), 3374; in test [3] (model FIG. 10, factor present), 13094; in test [3] (setting [13]) it was 5406. The “expression level of KDR” value in test [3] (model FIG. 7, factor present) turned out to be 33760; in test [3] (setting [6]), 23868; in test [3] (model FIG. 8, factor present), 40630; in test [3] (setting [14]), 29902; in test [3] (model FIG. 10, factor present), 36067; in test [3] (setting [13]) it was 22308. For the same compound, the “expression level of CD34” value was 7050 in test [3] (model FIG. 10, factor present) and 6550 in test [3] (setting [13]). The “expression level of TAL1” value is recorded as 1265 in test [3] (model FIG. 10, factor present) and 866 in test [3] (setting [13]).
Turning to “Thymosin-β4: Actin binding protein (SDKPDMAEIEKFDKSKLKKTETQEKNPLPSKETIEQEKQAGES; UniProt P62328 2-44, looked up)”, the “expression level of GATA2” value was found to be 633 in test [3] (model FIG. 8 (VEGF, FGF2, Thymosin-β4), factor present) and 437 in test [3] (setting [14]). Besides, the “expression level of CD44” value in test [3] (model FIG. 8, factor present) came to 748; in test [3] (setting [14]) it was 626. Further, the “expression level of KDR” value in test [3] (model FIG. 8, factor present) is 40660; in test [3] (setting [14]), 37788. In test [1] (setting [4]), the “factor contribution (maximum expression of GATA2)” value was 16.
heparin: the “factor contribution (maximum expression of GATA2)” value in test [1] (setting [4]) is “relatively low factor contribution”.
